Like-named read-outs stand apart in the source and are kept apart here.
Experiments:
[1] = Rate of air oxidation of 6,6-Me2PH4; format: physicochemical; details: 0.1 M Tris·HCl, pH 7.4 at 27°
Description: Stability. The rate of air oxidation of 6,6-Me₂PH₄ was measured in 0.1 M Tris·HCl, pH 7.4 at 27°, i.e., enzyme assay conditions. […] This is similar to the constant previously determined for 6,7-Me₂PH₄.

[2] = biological target: T1, Rat Liver Phenylalanine Hydroxylase (Rattus norvegicus, UniProt P04176); assay: Phenylalanine hydroxylase cofactor assay (cofactor consumption and tyrosine formation); format: biochemical; details: for 6,6-Me2PH4 oxidized: 2-3 minutes, no regenerating system; for 6,6-Me2PH4 tyrosine: ratio cofactor oxidized to tyrosine produced; for Relative Vmax: relative to l-BH4 = 1.0
T1 construct: Cofactor for Rat Liver Phenylalanine Hydroxylase; from tissue; host or cells: rat liver
T1 sequence (P04176 1-453): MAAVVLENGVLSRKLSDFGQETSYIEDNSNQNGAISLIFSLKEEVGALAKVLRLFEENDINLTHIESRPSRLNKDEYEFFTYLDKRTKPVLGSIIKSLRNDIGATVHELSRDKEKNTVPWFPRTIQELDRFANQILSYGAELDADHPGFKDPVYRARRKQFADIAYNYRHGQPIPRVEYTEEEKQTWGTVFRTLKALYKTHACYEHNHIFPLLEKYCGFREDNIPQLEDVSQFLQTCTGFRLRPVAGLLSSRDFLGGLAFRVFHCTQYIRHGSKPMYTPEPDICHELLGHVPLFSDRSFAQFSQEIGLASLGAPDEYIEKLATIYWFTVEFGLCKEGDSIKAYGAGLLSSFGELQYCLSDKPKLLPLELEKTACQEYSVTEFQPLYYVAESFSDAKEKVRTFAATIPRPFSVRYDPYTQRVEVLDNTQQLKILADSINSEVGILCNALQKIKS
Description: The 6,6-dimethyl substituted tetrahydropterin was tested for cofactor activity in a standard phenylalanine hydroxylase assay in which both cofactor consumption and tyrosine formation were monitored. […] An apparent Michaelis constant was determined at 1 mM phenylalanine and atmospheric oxygen with concentrations of 6,6-Me₂PH₄ ranging from 0.02-0.3 mM. The effect of a second methyl at the 6-position slightly increases the affinity for phenylalanine hydroxylase, since the apparent Km was two-thirds to three-quarters that of 6-methyl and 6,7-dimethyltetrahydropterin (Table IV). […] The maximum velocity of the reaction with 6,6-Me₂PH₄ is similar to that with the 6,7-dimethyl compound and about 6 times slower than with the natural cofactor (Table IV).

[3] = Preliminary in vivo testing: brain concentration after intraperitoneal injection; details: mice, intraperitoneally, 0.1 µmole/g body weight
Description: Preliminary in vivo testing of 6,6-disubstituted pteridines has been conducted. 6,6-Dimethyltetrahydropterin was injected intraperitoneally into mice at a dose rate of 0.1 µmole/g body weight. Maximum brain concentration was reached about one hour after injection and was more than 30 times higher than the maximum level reached by tetrahydrobiopterin injected in a similar manner.

[4] = biological target: T2, Sheep Liver Dihydropteridine Reductase (Ovis aries, UniProt A0ACI6QPJ5); assay: Quinoid dihydropterin as substrate for dihydropteridine reductase (sheep liver); format: biochemical; details: substrate produced by Peroxidase + H2O2
T2 sequence (A0ACI6QPJ5 46-254): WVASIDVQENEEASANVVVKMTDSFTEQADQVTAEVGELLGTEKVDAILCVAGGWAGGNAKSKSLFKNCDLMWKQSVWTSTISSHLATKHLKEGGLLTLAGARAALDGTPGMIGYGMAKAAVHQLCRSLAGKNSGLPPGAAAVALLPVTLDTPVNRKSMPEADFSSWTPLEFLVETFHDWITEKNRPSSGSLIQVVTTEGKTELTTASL
Description: The quinoid was generated from 6,6-Me₂PH₄, as outlined previously. […] Peroxidase (6 units/ml final volume) was temperature equilibrated in 0.1 M Tris·HCl, pH 7.4, at 27° for 5 minutes. H₂O₂ (1.2 mM final concentration) was then added, followed by 6,6-Me₂PH₄. Conversion to q-6,6-Me₂PH₂, monitored at 340 nm, was complete within a few seconds. • (iii) Generation by phenylalanine hydroxylase: […] At 5 minutes, 6,6-Me₂PH₄ was introduced and monitored at 340 nm. Conversion of 6,6-Me₂PH₄ to quinoid dihydropterin was complete in 1-7 minutes, depending on the concentration. […] Reaction was then initiated with dihydropteridine reductase (0.01 units/ml). Rates were calculated from the enzyme dependent decrease in O.D. at 340 nm, using an extinction coefficient of 9.8 for the chemically synthesized substrate and 6.2 for the peroxidase- and phenylalanine-hydroxylase-containing reactions in which the pterin is maintained in the quinoid form. […] This Km was obtained regardless of the method of generation of the quinoid dihydropterin. The Vmax's were also the same for the dihydropteridine reductase catalyzed reduction of quinoid generated by any of the three methods (Table VI). Thus, the quinoid products of each procedure appear to behave equally.

[5] = biological target: T1, Rat Liver Phenylalanine Hydroxylase; details: data from the literature (footnotes c, d), cited from earlier work
[6] = biological target: T3, phenylalanine hydroxylase (Rattus norvegicus, UniProt P04176); assay: Inhibition of phenylalanine hydroxylase by dihydropterins; format: biochemical; details: competitive inhibition; 6-MePH4 as cofactor 0.05 mM to 0.3 mM; read-out: apparent Ki
T3 construct: from tissue
T3 sequence (P04176 1-453): T1 sequence (P04176 1-453)
Description: Measurements were made under standard assay conditions with cofactor concentration varied between 0.05 and 0.3 mM. Stock solutions of 6,6-Me₂PH₂ were in 0.1 M assay buffer.
Standard assay conditions, with 6-MePH₄ as cofactor over a range of 0.05 mM to 0.3 mM, were employed.

[7] = cited from earlier work; for concentration: read-out: blood level
[8] = cited from earlier work
[9] = biological target: T4, Beef Liver Dihydropteridine Reductase (Bos taurus, UniProt Q3T0Z7); assay: Quinoid dihydropterin as substrate for dihydropteridine reductase (beef liver); format: biochemical; details: substrate produced by Peroxidase + H2O2
T4 construct: from tissue; host or cells: beef liver
T4 sequence (Q3T0Z7 1-242): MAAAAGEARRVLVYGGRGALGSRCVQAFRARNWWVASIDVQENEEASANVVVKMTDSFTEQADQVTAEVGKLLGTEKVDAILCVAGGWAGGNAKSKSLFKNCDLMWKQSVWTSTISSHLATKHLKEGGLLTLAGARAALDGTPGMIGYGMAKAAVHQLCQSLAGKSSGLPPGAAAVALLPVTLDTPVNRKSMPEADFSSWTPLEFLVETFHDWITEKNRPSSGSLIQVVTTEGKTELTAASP
Description: The quinoid was generated from 6,6-Me₂PH₄, as outlined previously. […] Peroxidase (6 units/ml final volume) was temperature equilibrated in 0.1 M Tris·HCl, pH 7.4, at 27° for 5 minutes. H₂O₂ (1.2 mM final concentration) was then added, followed by 6,6-Me₂PH₄. […] At 5 minutes, 6,6-Me₂PH₄ was introduced and monitored at 340 nm. […] Reaction was then initiated with dihydropteridine reductase (0.01 units/ml). Rates were calculated from the enzyme dependent decrease in O.D. at 340 nm, using an extinction coefficient of 9.8 for the chemically synthesized substrate and 6.2 for the peroxidase- and phenylalanine-hydroxylase-containing reactions in which the pterin is maintained in the quinoid form.

[10] = cited from earlier work; remark: listed apart in the source
[11] = rats, 125 mg BH4/kg intravenously, cited from earlier work
[12] = cited from earlier work; remark: listed apart in the source
[13] = 0.2 mM cofactor, l-BH4: sigmoidal curve, Hill coefficient = 2, read-out: Km' for Phenylalanine
[14] = 1 mM phenylalanine, atmospheric oxygen, 0.1 M Tris·HCl, pH 7.4, 27°C, read-out: Km' for Cofactor

CC1(C)CNc2nc(N)[nH]c(=O)c2N1 [6,6-Me2PH4, 6,6-Dimethyltetrahydropterin]
half-life [1]: 23 min | pseudo first order rate constant of air oxidation [1]: 0.03 min⁻¹ | coupling of the reaction (tyrosine formed per cofactor molecule consumed) [2]: completely coupled reaction | maximum velocity, times slower than with the natural cofactor [2]: about 6 | Tyrosine produced ([2]; Initial [6,6-Me2PH4] 0.01 mM): 4.27 nmol | 6,6-Me2PH4 oxidized ([2]; Initial [6,6-Me2PH4] 0.01 mM): 4.4 nmol | Tyrosine produced ([2]; Initial [6,6-Me2PH4] 0.03 mM): 9.77 nmol | 6,6-Me2PH4 oxidized ([2]; Initial [6,6-Me2PH4] 0.03 mM): 9.1 nmol | Tyrosine produced ([2]; Initial [6,6-Me2PH4] 0.06 mM): 12.57 nmol | 6,6-Me2PH4 oxidized ([2]; Initial [6,6-Me2PH4] 0.06 mM): 11.76 nmol | Tyrosine produced ([2]; Initial [6,6-Me2PH4] 0.1 mM): 19.25 nmol | 6,6-Me2PH4 oxidized ([2]; Initial [6,6-Me2PH4] 0.1 mM): 21.18 nmol | 6,6-Me2PH4 tyrosine ([2]; Initial [6,6-Me2PH4] 0.01 mM): 1.03 | 6,6-Me2PH4 tyrosine ([2]; Initial [6,6-Me2PH4] 0.03 mM): 0.93 | 6,6-Me2PH4 tyrosine ([2]; Initial [6,6-Me2PH4] 0.06 mM): 0.94 | 6,6-Me2PH4 tyrosine ([2]; Initial [6,6-Me2PH4] 0.1 mM): 1.10 | Relative Vmax [2]: 0.17 | maximum brain concentration, times higher than the maximum level reached by tetrahydrobiopterin [3]: more than 30 | time after injection at which maximum brain concentration was reached [3]: about one

CC1N=C2C(=O)N=C(N)N=C2NC1C (stereo not shown) [6,7-Me2PH2]
Relative Vmax Sheep [4]: 2

CC1Nc2nc(N)[nH]c(=O)c2NC1C (stereo not shown) [6,7-Me2PH4, 6,7-dimethyltetrahydropterin]
Km [5, 13]: 800 ± 100 µM | Km [5, 14]: 90 ± 10 µM | Relative Vmax ([5]; relative to l-BH4 = 1.0): 0.17

C[C@H](O)[C@H](O)C1=Nc2c(nc(N)[nH]c2=O)NC1 [7,8-dihydrobiopterin, reference compound]
Ki [6]: 50 µM

CC1CNc2nc(N)[nH]c(=O)c2N1 (stereo not shown) [Compound 6-MePH4, 6-methyltetrahydropterin]
share of striatal 6-MePH4 remaining in the fully reduced tetrahydro-form ([7]; 2 hrs after injection, Kapatos and Kaufman): over 85% | share of 6-MePH4 in the brain in the reduced form ([7]; Curtius et al.): 30% | efficiency of entry into the brain, times that of an equal dose of BH4 ([7]; rats, 0.11 µmole (i.p.)/gm body weight): up to 10 | brain level ([7]; rats, 0.11 µmole (i.p.)/gm, at 30 minutes, maintained until 2 hours): 2 nmoles/g brain | brain level as share of that expected assuming equal body distribution ([7]; rats, 0.11 µmole (i.p.)/gm): 2% | concentration ([7]; rats, i.p., at 30 minutes): 40 µM | concentration ([7]; rats, i.p., by 2 hrs): 10 µM | half life for retention by the brain ([7]; rats, i.p.): 180 min | half life for retention by the plasma ([7]; rats, i.p.): 42 min | CSF level ([8]; at 9.5 hours after intravenous injection of 20 mg/kg): 0.06 µg/mL | CSF level ([8]; three hours after intravenous injection of 20 mg/kg, 180 min): 0.45 µg/mL | CSF level as share of that expected on the basis of equal body distribution ([8]; three hours after intravenous injection of 20 mg/kg): 2.2% | CSF 5-hydroxyindoleacetic acid ([8]; two hours after 8 mg/kg, from 6 before, normal = 30): 18 ng/mL | CSF homovanillic acid ([8]; two hours after 8 mg/kg, from 9 before, normal 132): 22 ng/mL | Relative Vmax [2]: 0.77

CC1(c2ccccc2)CNC2=NC(N)=NC(=O)C2=N1 (stereo not shown) [Compound 6-Ph-6-MePH2, 2-Amino-4-hydroxy-6-methyl-6-phenyl-quinoid-dihydro-pteridine]
Relative Vmax Beef [9]: 0.6

CC(O)C(O)C1=Nc2c(nc(N)[nH]c2=O)NC1 (stereo not shown) [Dihydrobiopterin]
time normal levels of phenylalanine were maintained ([10]; orally 2.5 mg/kg): 24 h

C[C@H](O)[C@H](O)[C@H]1CNc2nc(N)[nH]c(=O)c2N1 [l-BH4, tetrahydrobiopterin]
maximum increase of BH4 in the striatum ([11]; in 15 mins): 30% | striatal increase as share of the concentration administered assuming uniform body distribution [11]: 0.2% | time of return of striatal BH4 to normal [11]: less than 2 hours | increase in CSF BH4 ([12]; 2 mg BH4 (i.v.)/kg/day for 3 days, 1 day after the last injection, BH4-synthesis-deficient child): no increase | CSF BH4 ([12]; 2.5 hours after oral treatment, in two equal doses, from 2 ng before): 44 ng/mL | CSF BH4 as share of that expected assuming uniform body distribution and retention ([12]; 2.5 hours after oral treatment): 0.22% | Km [5, 13]: 170 µM | Km [5, 14]: 21 ± 3 µM

C[C@H](O)C(=O)C1=Nc2c(nc(N)[nH]c2=O)NC1 [sepiapterin]
time normal levels of phenylalanine were maintained ([10]; orally 0.6 mg-1.25 mg/kg): 24 h | effect on neurological symptoms ([12]; 2.75 mg (p.o.)/kg, one patient): shown to have an effect

quinoid dihydrobiopterin [dihydro-biopterin (natural isomer), reference compound]
Km [4]: 0.004 mM | Relative Vmax Sheep [4]: 0.5 | Km [9]: 0.004 mM | Relative Vmax Beef [9]: 0.5
